Like-named read-outs stand apart in the source and are kept apart here.
Columns and labels:
E. coli LptB2FGC = target: T1, E. coli LptB2FGC (Escherichia coli, UniProt P0ADC6+P0AF98); test: LPS-release assay, proteoliposomes to LptA; assay type: biochemical; conditions: E. coli LptB2FGC proteins
T1 construct: made in house; host or cells: E. coli C43(λDE3)
Description: The levels of release of LPS from proteoliposomes to LptA were measured as previously described. Assays used 60% proteoliposomes (by volume) in a solution containing 50 mM Tris-HCl (pH 8.0), 500 mM NaCl, 10% glycerol and 2 µM LptA^I36pBPA. Reaction mixtures were incubated with drug for 10 min at room temperature, as applicable. Reactions were then initiated by the addition of ATP and MgCl2 (final concentrations of 5 mM and 2 mM, respectively) and proceeded at 30 °C. Aliquots (25 µl) were removed from the reaction mixtures and irradiated with ultraviolet light (365 nm) on ice for 10 min using a B-100AP lamp (Thermo Fisher Scientific). After ultraviolet irradiation, 25 µl 2× SDS–PAGE sample loading buffer was added, the samples were boiled for 10 min and proteins were separated using Tris-HCl 4–20% polyacrylamide gradient gels with Tris-glycine running buffer. Immunoblotting was conducted as described above.

A. baumannii ACC01073 = test: Time–kill kinetics; assay type: cell-based, Acinetobacter baumannii
Description: Time–kill studies were performed according to the CLSI standard procedure M26-A[40]. […] A. baumannii colonies from agar plates were inoculated into CAMHB supplemented with 20% human serum and incubated overnight at 35 ± 2 °C in ambient air under shaking. The overnight culture was diluted 1:10,000 and further incubated for 2 h. A total of 5 ml of the bacterial log-phase suspension was transferred into six-well plates. […] The six-well plates were incubated at 35 ± 2 °C in ambient air under shaking (100 rpm) for 24 h, 150 μl was withdrawn at the selected timepoints (0, 2, 4, 8, 12, 16, 20 and 24 h), diluted, plated on a Mueller–Hinton agar plate and incubated overnight for CFU determination. GraphPad Prism v.8 was used for graphical presentation of the data.

Aqueous solubility = assay type: physicochemical; conditions: pH 1–9

T1 sequence (P0AF98 whole entry): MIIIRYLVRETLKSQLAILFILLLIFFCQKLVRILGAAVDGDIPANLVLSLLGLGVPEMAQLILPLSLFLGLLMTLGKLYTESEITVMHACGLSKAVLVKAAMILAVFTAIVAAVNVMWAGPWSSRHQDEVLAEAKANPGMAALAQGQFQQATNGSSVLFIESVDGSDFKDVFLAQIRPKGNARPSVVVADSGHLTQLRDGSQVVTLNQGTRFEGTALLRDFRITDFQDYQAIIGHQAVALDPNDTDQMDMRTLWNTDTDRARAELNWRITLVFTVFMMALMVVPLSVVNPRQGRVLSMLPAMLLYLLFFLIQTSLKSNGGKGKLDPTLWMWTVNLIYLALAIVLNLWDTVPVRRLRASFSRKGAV
T1 sequence (P0ADC6 whole entry): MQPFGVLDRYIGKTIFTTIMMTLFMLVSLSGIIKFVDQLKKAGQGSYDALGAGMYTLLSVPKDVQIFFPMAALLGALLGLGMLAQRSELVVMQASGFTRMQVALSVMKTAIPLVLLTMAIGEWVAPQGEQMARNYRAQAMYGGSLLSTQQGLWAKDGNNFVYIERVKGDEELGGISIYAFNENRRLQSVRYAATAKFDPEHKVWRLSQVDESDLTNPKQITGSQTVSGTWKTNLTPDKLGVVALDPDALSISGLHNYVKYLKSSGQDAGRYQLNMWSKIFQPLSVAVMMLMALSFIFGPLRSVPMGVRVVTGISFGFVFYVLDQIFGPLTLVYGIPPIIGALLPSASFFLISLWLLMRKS
T1 sequence (P0A9V1 whole entry partner): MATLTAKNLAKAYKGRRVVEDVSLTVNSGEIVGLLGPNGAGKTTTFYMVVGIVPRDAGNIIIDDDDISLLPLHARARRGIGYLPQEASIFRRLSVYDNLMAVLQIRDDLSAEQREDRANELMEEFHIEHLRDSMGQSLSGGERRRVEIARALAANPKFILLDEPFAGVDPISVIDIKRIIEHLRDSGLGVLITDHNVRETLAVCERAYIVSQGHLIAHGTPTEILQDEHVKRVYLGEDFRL
T1 sequence (P0ADV9 whole entry partner): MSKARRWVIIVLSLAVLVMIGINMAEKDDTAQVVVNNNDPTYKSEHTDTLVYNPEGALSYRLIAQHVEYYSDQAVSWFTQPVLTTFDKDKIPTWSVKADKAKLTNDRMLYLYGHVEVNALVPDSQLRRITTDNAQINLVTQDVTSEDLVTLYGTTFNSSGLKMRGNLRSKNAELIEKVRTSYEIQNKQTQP

CN1C(=O)[C@H](CCCCN)NC(=O)[C@H](CCCN)NCc2cccnc2Sc2cccc(-c3ccc(C(=O)O)cc3)c2CNC(=O)[C@@H]1Cc1c[nH]c2ccccc12 [zosurabalpin]
LPS extraction to LptA (E. coli LptB2FGC): no effect on LPS extraction
MIC_WT (A. baumannii; A. baumannii ATCC 17978, wild type (parental strain)): 0.06 µM
MIC_WT (A. baumannii; A. baumannii ATCC 19606, wild type (parental strain)): 0.25 µM
MIC_WT (A. baumannii; A. baumannii ROB08705, wild type (parental strain)): 0.13 µM
MIC_WT (A. baumannii; A. baumannii ROB08706, wild type (parental strain)): 1.0 µM
MIC_value (A. baumannii; ATCC 17978 clone 1D1, run AB17978_3280_HS, evolved in HS/MHB): 128 µM
MIC_value (A. baumannii; ATCC 17978 clone 1D3, run AB17978_3280_HS, evolved in HS/MHB): 128 µM
MIC_value (A. baumannii; ATCC 17978 clone 1E3, run AB17978_3280_MHB, evolved in MHB): 16 µM
MIC_value (A. baumannii; ATCC 17978 clone 1F1, run AB17978_3280_MHB, evolved in MHB): >128 µM
MIC_value (A. baumannii; ATCC 17978 clone 2C1, run AB17978_3280_HS, evolved in HS/MHB): 16 µM
MIC_value (A. baumannii; ATCC 17978 clone 2C1, run AB17978_3280_MHB, evolved in MHB): 2 µM
MIC_value (A. baumannii; ATCC 17978 clone 2C2, run AB17978_3280_HS, evolved in HS/MHB): 8 µM
MIC_value (A. baumannii; ATCC 17978 clone 2C3, run AB17978_3280_HS, evolved in HS/MHB): 4 µM
MIC_value (A. baumannii; ATCC 17978 clone 2C4, run AB17978_3280_MHB, evolved in MHB): 8 µM
MIC_value (A. baumannii; ATCC 17978 clone 2D2, run AB17978_3280_MHB, evolved in MHB): 8 µM
MIC_value (A. baumannii; ATCC 17978 clone 2D3, run AB17978_3280_HS, evolved in HS/MHB): 32 µM
MIC_value (A. baumannii; ATCC 17978 clone 3D1, run AB17978_3280_HS, evolved in HS/MHB): 32 µM
MIC_value (A. baumannii; ATCC 17978 clone 4D1, run AB17978_3280_MHB, evolved in MHB): 64 µM
MIC_value (A. baumannii; ATCC 17978 clone 5B1, run AB17978_3280_HS, evolved in HS/MHB): 1 µM
MIC_value (A. baumannii; ATCC 17978 clone 5C1, run AB17978_3280_HS, evolved in HS/MHB): 64 µM
MIC_value (A. baumannii; ATCC 17978 clone 5E1, run AB17978_3280_MHB, evolved in MHB): >32 µM
MIC_value (A. baumannii; ATCC 17978 clone 6E1, run AB17978_3280_HS, evolved in HS/MHB): 32 µM
MIC_value (A. baumannii; ATCC 17978 clone 6E1, run AB17978_3280_MHB, evolved in MHB): 4 µM
MIC_value (A. baumannii; ATCC 17978 clone 6E2, run AB17978_3280_HS, evolved in HS/MHB): 16 µM
MIC_value (A. baumannii; ATCC 17978 clone 6E3, run AB17978_3280_HS, evolved in HS/MHB): 32 µM
MIC_value (A. baumannii; ATCC 17978 clone 6E4, run AB17978_3280_HS, evolved in HS/MHB): 32 µM
MIC_value (A. baumannii; ATCC 17978 clone 6E4, run AB17978_3280_MHB, evolved in MHB): 8 µM
MIC_value (A. baumannii; ATCC 17978 clone 6E5, run AB17978_3280_HS, evolved in HS/MHB): 32 µM
MIC_value (A. baumannii; ATCC 17978 clone 6E6, run AB17978_3280_HS, evolved in HS/MHB): 8 µM
MIC_value (A. baumannii; ATCC 17978 clone 6E9, run AB17978_3280_HS, evolved in HS/MHB): 8 µM
MIC_value (A. baumannii; ATCC 19606 clone 1C2, run AB19606_3280_HS, evolved in HS_MHB): 8 µM
MIC_value (A. baumannii; ATCC 19606 clone 1C3, run AB19606_3280_HS, evolved in HS_MHB): 16 µM
MIC_value (A. baumannii; ATCC 19606 clone 1C4, run AB19606_3280_HS, evolved in HS_MHB): 8 µM
MIC_value (A. baumannii; ATCC 19606 clone 2C1, run AB19606_3280_HS, evolved in HS_MHB): 64 µM
MIC_value (A. baumannii; ATCC 19606 clone 2C3, run AB19606_3280_HS, evolved in HS_MHB): 64 µM
MIC_value (A. baumannii; ATCC 19606 clone 2C6, run AB19606_3280_HS, evolved in HS_MHB): 16 µM
MIC_value (A. baumannii; ATCC 19606 clone 2E1, run AB19606_3280_MHB, evolved in MHB): 16 µM
MIC_value (A. baumannii; ATCC 19606 clone 2E2, run AB19606_3280_MHB, evolved in MHB): 16 µM
MIC_value (A. baumannii; ATCC 19606 clone 2E3, run AB19606_3280_MHB, evolved in MHB): 8 µM
MIC_value (A. baumannii; ATCC 19606 clone 2E6, run AB19606_3280_MHB, evolved in MHB): 16 µM
MIC_value (A. baumannii; ATCC 19606 clone 3D1, run AB19606_3280_MHB, evolved in MHB): 2 µM
MIC_value (A. baumannii; ATCC 19606 clone 3F1, run AB19606_3280_MHB, evolved in MHB): 64 µM
MIC_value (A. baumannii; ATCC 19606 clone 4C1, run AB19606_3280_HS, evolved in HS_MHB): 4 µM
MIC_value (A. baumannii; ATCC 19606 clone 4C2, run AB19606_3280_HS, evolved in HS_MHB): 16 µM
MIC_value (A. baumannii; ATCC 19606 clone 4C7, run AB19606_3280_HS, evolved in HS_MHB): 64 µM
MIC_value (A. baumannii; ATCC 19606 clone 5C4, run AB19606_3280_HS, evolved in HS_MHB): 32 µM
MIC_value (A. baumannii; ATCC 19606 clone 5E2, run AB19606_3280_HS, evolved in HS_MHB): 16 µM
MIC_value (A. baumannii; ATCC 19606 clone 5E3, run AB19606_3280_HS, evolved in HS_MHB): 8 µM
MIC_value (A. baumannii; ATCC 19606 clone 5E5, run AB19606_3280_HS, evolved in HS_MHB): <2 µM
MIC_value (A. baumannii; ATCC 19606 clone 5E6, run AB19606_3280_HS, evolved in HS_MHB): 16 µM
MIC_value (A. baumannii; ATCC 19606 clone 5E7, run AB19606_3280_HS, evolved in HS_MHB): 8 µM
MIC_value (A. baumannii; ATCC 19606 clone 5F1, run AB19606_3280_MHB, evolved in MHB): >128 µM
MIC_value (A. baumannii; ATCC 19606 clone 5F2, run AB19606_3280_MHB, evolved in MHB): 16 µM
MIC_value (A. baumannii; ATCC 19606 clone 5F3, run AB19606_3280_MHB, evolved in MHB): 16 µM
MIC_value (A. baumannii; ATCC 19606 clone 6E1, run AB19606_3280_HS, evolved in HS_MHB): 8 µM
MIC_value (A. baumannii; ROB08705 clone 1C1, run ABR05_3280_HS, evolved in HS_MHB): 4 µM
MIC_value (A. baumannii; ROB08705 clone 2C1, run ABR05_3280_MHB, evolved in MHB): >32 µM
MIC_value (A. baumannii; ROB08705 clone 2D1, run ABR05_3280_MHB, evolved in MHB): 8 µM
MIC_value (A. baumannii; ROB08705 clone 3B1, run ABR05_3280_HS, evolved in HS_MHB): 4 µM
MIC_value (A. baumannii; ROB08705 clone 3B1, run ABR05_3280_MHB, evolved in MHB): 8 to 16 µM
MIC_value (A. baumannii; ROB08705 clone 3B3, run ABR05_3280_HS, evolved in HS_MHB): 4 to 8 µM
MIC_value (A. baumannii; ROB08705 clone 3B4, run ABR05_3280_HS, evolved in HS_MHB): 16 µM
MIC_value (A. baumannii; ROB08705 clone 3B5, run ABR05_3280_HS, evolved in HS_MHB): 2 µM
MIC_value (A. baumannii; ROB08705 clone 3B6, run ABR05_3280_HS, evolved in HS_MHB): 1 µM
MIC_value (A. baumannii; ROB08705 clone 4B1, run ABR05_3280_HS, evolved in HS_MHB): 128 µM
MIC_value (A. baumannii; ROB08705 clone 4B2, run ABR05_3280_HS, evolved in HS_MHB): 4 µM
MIC_value (A. baumannii; ROB08705 clone 4D1, run ABR05_3280_MHB, evolved in MHB): 4 µM
MIC_value (A. baumannii; ROB08705 clone 5C2, run ABR05_3280_HS, evolved in HS_MHB): 4 µM
MIC_value (A. baumannii; ROB08705 clone 5C3, run ABR05_3280_HS, evolved in HS_MHB): 32 µM
MIC_value (A. baumannii; ROB08705 clone 5C5, run ABR05_3280_HS, evolved in HS_MHB): 8 µM
MIC_value (A. baumannii; ROB08706 clone 1D1, run ABR06_3280_MHB, evolved in MHB): 32 to 64 µM
MIC_value (A. baumannii; ROB08706 clone 1E1, run ABR06_3280_HS, evolved in HS_MHB): 4 to 8 µM
MIC_value (A. baumannii; ROB08706 clone 1E2, run ABR06_3280_HS, evolved in HS_MHB): 64 µM
MIC_value (A. baumannii; ROB08706 clone 2C1, run ABR06_3280_MHB, evolved in MHB): 32 µM
MIC_value (A. baumannii; ROB08706 clone 2C3, run ABR06_3280_MHB, evolved in MHB): 4 µM
MIC_value (A. baumannii; ROB08706 clone 2D1, run ABR06_3280_HS, evolved in HS_MHB): 2 µM
MIC_value (A. baumannii; ROB08706 clone 2D5, run ABR06_3280_HS, evolved in HS_MHB): 4 µM
MIC_value (A. baumannii; ROB08706 clone 2D6, run ABR06_3280_HS, evolved in HS_MHB): 4 µM
MIC_value (A. baumannii; ROB08706 clone 2D7, run ABR06_3280_HS, evolved in HS_MHB): 2 µM
MIC_value (A. baumannii; ROB08706 clone 2E1, run ABR06_3280_HS, evolved in HS_MHB): 32 µM
MIC_value (A. baumannii; ROB08706 clone 3B3, run ABR06_3280_MHB, evolved in MHB): 4 µM
MIC_value (A. baumannii; ROB08706 clone 3E1, run ABR06_3280_HS, evolved in HS_MHB): 4 µM
MIC_value (A. baumannii; ROB08706 clone 4D1, run ABR06_3280_MHB, evolved in MHB): 8 to 16 µM
MIC_value (A. baumannii; ROB08706 clone 4D2, run ABR06_3280_MHB, evolved in MHB): 4 to 8 µM
MIC_value (A. baumannii; ROB08706 clone 4E1, run ABR06_3280_HS, evolved in HS_MHB): 4 µM
MIC_value (A. baumannii; ROB08706 clone 5C1, run ABR06_3280_MHB, evolved in MHB): 4 µM
MIC_value (A. baumannii; ROB08706 clone 5D3, run ABR06_3280_MHB, evolved in MHB): 4 to 8 µM
Time–kill outcome (A. baumannii ACC01073): bactericidal effect above 4× MIC
aqueous solubility (Aqueous solubility): > 100 mg/mL
